We go through one compound from patent US20050175550A1, “Compositions for oral use” (priority 2000, published 2005).

For the assay, the system named is Streptococcus mutans Xc. Briefly: Minimum growth-inhibiting concentration on agar media (Example 2). Type of assay: cell-based. Conditions: S. mutans Xc; Brain Heart Infusion, 5% CO2. The procedure: 3 ml of GAM broth (Nissui Medical) containing 5 μg/ml of hemin and 1 μg/ml of menadione was separately inoculated with one platinum loop each of subcultures of causative bacteria of periodontal disease, strains Porphyromonas gingivalis W83, W50, ATCC49417 and ATCC33277, strain Actinobacillus actinomycetemcomitans Y4, and strains Fusobacterium nucleatum ATCC10953 and ATCC25586, followed by incubation at 37° C. under anaerobic conditions (10% CO2, 10% H2 and 80% N2) overnight. Then, the resulting cultures were diluted to 10^−8, 10^−6, 10^−4 and 10^−3 to make inoculating bacterial solutions, respectively.
Agar media containing 400, 200, 100, 50, 25, 10 and 5 μg/ml of TFM, respectively, were prepared and streaked, about 2 cm long, with a platinum loop each of the above-prepared inoculating bacterial solutions, followed by incubation under the same anaerobic conditions as above at 37° C. for 48-72 hours to evaluate growth of the bacteria.
Streptococcus sobrinus MT8246, Streptococcus sanuis ST160, Streptococcus mutans Xc and Streptococcus salivarius HHT were likewise incubated in Brain Heart Infusion (Difco) in the same manner as above except that the incubation was conducted in the presence of 5% CO2 to evaluate the growth.

The compound `N[C@@H](CCSC(F)(F)F)C(=O)O` [TFM, Trifluoromethionine] gave a Minimum growth-inhibiting concentration greater than 400 µg/mL.
